Experimental data published in US20080188562A1, “TREATING […] USING PRODRUGS OF […] PREGABALIN” (priority 2006, published 2008).

What was measured:
[1] = Randomized, crossover, fed/fasted single-dose pharmacokinetics study of oral sustained release tablets of compound (3); format: in vivo, human; settings: tablets 2×600 mg oral
Procedure: A randomized, crossover, fed/fasted single-dose study of the safety, tolerability, and pharmacokinetics of oral administration of 1-{[(α-isobutanoyloxyethoxy)carbonyl]aminomethyl}-1-cyclohexane acetic acid (3) in healthy adult subjects was conducted. The oral sustained release dosage form of Example 6 was used in this study. The study was designed to evaluate the performance of this formulation in humans in comparison with the commercial gabapentin capsule formulation (Neurontin®, Pfizer). Twelve healthy adult volunteers (7 males and 5 females) participated in the study. Mean body weight was 75.6 kg. All subjects received two different treatments in a random order with a one-week washout between treatments.
Blood and plasma samples were collected from all subjects prior to dosing, and at 0.5, 1, 1.5, 2, 3, 4, 6, 8, 12, 18, 24, and 36 hours after dosing. Urine samples were collected from all subjects prior to dosing, and complete urine output was obtained at the 0-4 h, 4-8 h, 8-12 h, 12-18 h, 18-24 h, and 24-36 h intervals after dosing. Blood samples were quenched immediately with methanol and stored frozen at <70° C. Sample aliquots were prepared for analysis of gabapentin and compound (3) using sensitive and specific LC/MS/MS methods.

[2] = cited from earlier work
[3] = system: acoustic trauma-induced tinnitus; settings: animals; Bauer and Brozoski 2001; cited from earlier work
[4] = system: tinnitus; settings: doses up to 2,400 mg/day; Bauer and Brozoski 2006; cited from earlier work

## CC(OC(=O)NCC1(CC(=O)O)CCCCC1)OC(=O)C(C)C (stereo not drawn) [compound (3), 1-{[(α-Isobutanoyloxyethoxy)carbonyl]aminomethyl}-1-Cyclohexane Acetic Acid]
[1]; fasted
  AUC of compound (3) in blood as percent of corresponding AUC of gabapentin in blood: 0.3%
  Maximum concentration of intact compound (3) as percent of corresponding peak gabapentin concentration: approximately 1.0%
  Maximum concentration of intact compound (3) in blood: 0.040 µg/mL
[1]; fed
  AUC of compound (3) in blood as percent of corresponding AUC of gabapentin in blood: less than 0.1%
  Maximum concentration of intact compound (3) as percent of corresponding peak gabapentin concentration: approximately 0.3%
  Maximum concentration of intact compound (3) in blood: 0.018 µg/mL

## NCC1(CC(=O)O)CCCCC1 [gabapentin]
[2]
  Typical Tmax of immediate release gabapentin: 2 to 4 h
[3]
  Attenuation of acoustic trauma-induced tinnitus: effective in reversibly attenuating acoustic trauma-induced tinnitus in animals
[4]
  Efficacy in treating tinnitus: effective in treating tinnitus
